Test results as given in patent US7166622B2, “Substituted phenylsulfonamide inhibitors of beta amyloid production” (Wyeth, priority 2002, dated 2007).
Like-named read-outs stand apart in the source and are kept apart here.

Legend:
CHO-K1 cells = assay: Toxicity in RRA (loss of luciferase signal); conditions: toxicity = loss of signal (<0.75 fold increase)
Experimental: The beta amyloid inhibitory activity of the compounds of the present invention was determined using the Repressor Release Assay (RRA).
“Fold Increase” refers to the amount of luciferase activity (measured in relative light units) over diluent control. “SEM” refers to the standard error of the mean for fold increase.

beta amyloid production = assay: Repressor Release Assay (RRA); format: cell-based; conditions: for fold induction at 10 µg/mL / fold induction at 20 µg/mL: read-out: APPI Fold Increase; for fold induction at 20 µg/mL: Conc 20 μg/ml
How it was run: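 Read-out is luciferase luminescence (RLU) after 36-48 h duplicate compound exposure of transfected CHO-K1 cells. These cells carry transiently introduced APP-lacI and pRSVO-luc DNA. Diluent control was 25 mM Hepes/1% DMSO; toxicity recorded as binary score (1 non-toxic, 0 toxic).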

[1] = Conc 10 μg/ml, luciferase activity over diluent control
[2] = Conc 20 μg/ml, 1=non-toxic, 0=toxic
[3] = luciferase activity (RLU) over diluent control
[4] = luciferase activity over diluent control

Row | Structure (SMILES) | (%)APPI Toxicity (CHO-K1 cells; Conc 10 μg/ml) | fold induction at 10 µg/mL (beta amyloid production; [1]) | also measured
1 | C=C(C)C(O)[C@@H](NS(=O)(=O)c1ccc(Br)cc1)[C@@H](C)CC (stereo partly drawn) [Example 157, 4-bromo-N-{(1S)-2-hydroxy-3-methyl-1-[(1S)-1-methylpropyl]-3-butenyl}benzenesulfonamide] | 1 (1=non-toxic) | 1.96 | 
2 | CC[C@H](C)[C@H](NS(=O)(=O)c1ccc(Cl)cc1)C(O)c1cccc2ccccc12 (stereo partly drawn) [Example 184, 4-chloro-N-{(1S,2S)-1-[hydroxy(1-naphthyl)methyl]-2-methylbutyl}benzenesulfonamide] | 1 (1=non-toxic) | 1.7 | 
3 | CCCCCC[C@@H](C(C)C)[C@@H](CO)NS(=O)(=O)c1ccc(Cl)cc1 [Example 70, 4-chloro-N-[(1S,2S)-1-(hydroxymethyl)-2-isopropyloctyl]benzenesulfonamide] |  |  | (%)APPI Toxicity (CHO-K1 cells; [2]): 1 (1=non-toxic); fold induction at 20 µg/mL (beta amyloid production; [3]): 2
4 | CC[C@H](C)[C@H](NS(=O)(=O)c1ccc(Cl)cc1)C(O)c1ccc(SC)cc1 (stereo partly drawn) [Example 182, 4-chloro-N-((1S,2S)-1-{hydroxy[4-(methylsulfanyl)phenyl]methyl}-2-methylbutyl) benzenesulfonamide] | 1 (1=non-toxic) |  | APPI Fold Increase (beta amyloid production; [1]): 2.58 fold; APPI % of Example #98 (beta amyloid production; Conc 10 μg/ml, relative to Example 98): 122.24%
5 | C=C(C)C(O)[C@@H](NS(=O)(=O)c1ccc(F)cc1)[C@@H](C)CC (stereo partly drawn) [Example 138, 4-fluoro-N-{(1S)-2-hydroxy-3-methyl-1-[(1S)-1-methylpropyl]-3-butenyl}benzenesulfonamide] | 1 (1=non-toxic) | 1.57 | 
6 | CC[C@H](C)[C@H](NS(=O)(=O)c1cccc(Cl)c1)C(O)c1ccc(SC)cc1 (stereo partly drawn) [Example 201, 3-chloro-N-((1S,2S)-1-{hydroxy[4-(methylsulfanyl)phenyl]methyl}-2-methylbutyl)benzenesulfonamide] | 1 (1=non-toxic) | 2.45 | 
7 | CC(C)(C)[C@@H](CO)NS(=O)(=O)c1cc(Cl)c(Cl)cc1Cl [Example 31, 2,4,5-trichloro-N-[(1S)-1-(hydroxymethyl)-2,2-dimethylpropyl]benzenesulfonamide] |  |  | (%)APPI Toxicity (CHO-K1 cells; Conc 20 μg/ml): 1 (1=non-toxic); fold induction at 20 µg/mL (beta amyloid production; [4]): 2.8
8 | C/C=C(\C)C(O)(/C(C)=C/C)[C@@H](NS(=O)(=O)c1ccccc1F)[C@@H](C)CC (stereo partly drawn) [Example 270, 2-fluoro-N-{(1S,3E)-2-hydroxy-3-methyl-2-[(1E)-1-methyl-1-propenyl]-1-[(1S)-1-methylpropyl]-3-pentenyl}benzenesulfonamide] | 1 (1=non-toxic) | 1.86 | 
9 | CCC[C@H](CC)[C@@H](CO)NS(=O)(=O)c1ccc(Cl)cc1 [Example 55, 4-chloro-N-[(1S,2S)-2-ethyl-1-(hydroxymethyl)pentyl]benzenesulfonamide] |  |  | (%)APPI Toxicity (CHO-K1 cells; [2]): 1 (1=non-toxic); fold induction at 20 µg/mL (beta amyloid production; [3]): 5.6
10 | C=CCCC(O)(CCC=C)[C@@H](NS(=O)(=O)c1ccccc1F)[C@@H](C)CC [Example 271, N-{(1S)-2-(3-butenyl)-2-hydroxy-1-[(1S)-1-methylpropyl]-5-hexenyl}-2-fluorobenzenesulfonamide] | 1 (1=non-toxic) | 1.82 | 
11 | CC[C@H](C)[C@H](NS(=O)(=O)c1ccc(Cl)cc1)C(C)(C)O [Example 223, 4-chloro-N-[(1S,2S)-1-(1-hydroxy-1-methylethyl)-2-methylbutyl]benzenesulfonamide] | 1 (1=non-toxic) | 2.33 | 
12 | CCC(O)[C@@H](NS(=O)(=O)c1cccc(Cl)c1)[C@@H](C)CC (stereo partly drawn) [Example 195, 3-chloro-N-{(1S)-2-hydroxy-1-[(1S)-1-methylpropyl]butyl}benzenesulfonamide] | 1 (1=non-toxic) | 2.16 | 
13 | CC[C@@H](c1ccco1)[C@@H](CO)NS(=O)(=O)c1ccc(Br)cc1 [Example 85, 4-bromo-N-[(1S,2R)-2-(2-furyl)-1-(hydroxymethyl)butyl]benzenesulfonamide] |  |  | (%)APPI Toxicity (CHO-K1 cells; [2]): 1 (1=non-toxic); fold induction at 20 µg/mL (beta amyloid production; [3]): 3.4
14 | O=S(=O)(NC(CO)(c1ccccc1)C1CCC1)c1ccc(Cl)cc1 (stereo not shown) [Example 125, 4-chloro-N-(1-cyclobutyl-2-hydroxy-1-phenylethyl)benzenesulfonamide] |  |  | (%)APPI Toxicity (CHO-K1 cells; Conc 20 μg/ml): 1 (1=non-toxic); fold induction at 20 µg/mL (beta amyloid production; [4]): 1.8
15 | O=S(=O)(NC1(CO)CCCC1)c1ccc(Cl)cc1 [Example 103, 4-chloro-N-[1-(hydroxymethyl)cyclopentyl]benzenesulfonamide] |  |  | (%)APPI Toxicity (CHO-K1 cells; Conc 20 μg/ml): 1 (1=non-toxic); fold induction at 20 µg/mL (beta amyloid production; [4]): 2.6
